In PubChem BioAssay (NCI):
Several values for one entry are separate records, joined by “and”; a condition that tells them apart may be missing. Identical values can stand only once.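 A five-concentration, 48-hour dose response in 96-well plates underlies each endpoint, interpolated linearly between surrounding concentrations. GI50 marks 50% less growth. TGI marks complete inhibition of growth.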

System: MDA-MB-468 breast
Assay: inhibition of tumour cell growth, NCI panel, 48 h

| SMILES | GI50 | TGI [µM] |
| --- | --- | --- |
| COc1ccc(-c2[nH]ncc2-c2cc(OC)c(OC)c(OC)c2)cc1 | < 0.01 µM | 5.56 |
| COc1ccc2sc3c(NCCCNCCO)nc4ccccc4c3c(=O)c2c1 | 1.73 µM | 3.41 |
| C=C1C(=O)O[C@H]2[C@H]1CC/C(COC(=O)C(=O)c1cn(C)c3ccc(OC)cc13)=C\CC[C@@]1(C)O[C@@H]21 | 1.73 µM | 2.92 |
| NC(N)=Nc1ccc(Oc2ccc(Nc3ccc(Cl)c(C(F)(F)F)c3)cc2)cc1 | 1.55 µM | 3.39 |
| Oc1ccc(-c2nc3ccc4[nH]ncc4c3c3c2CCCC3)c2cccnc12 | 0.787 µM | 2.02 |
| COC(=O)[C@]12CC[C@@H](C)[C@H](C)[C@@H]1C1=CC[C@@H]3[C@@]4(C)C=C(O)C(=O)C(C)=C4CC[C@@]3(C)[C@]1(C)CC2 | 9.95 µM | 26.9 |
| COc1ccc(C(=O)N/N=C/c2ccc(O)cc2O)cc1Nc1ccnc(C(F)(F)F)c1 | 0.365 µM | 68.1 |
| COc1cc(C2c3cc4c(cc3OC(N3CCOCC3)C2C)OCO4)cc(OC)c1OC(C)=O (stereo not given) | 20 µM | > 100 |
| CN1c2ccccc2C(C)(C)C12CC(c1ccc(Cl)c(S(=O)(=O)N3CCCC3)c1)=NO2 (stereo not given) | > 100 µM | > 100 |
| CC(=O)OC1=C2C(CC3C4CC=C5CC(OC(C)=O)CCC5(C)C4CCC23C)C2C(=O)N(Cc3ccccc3)C(=O)C2C1 (stereo not given) | 2.84 µM | 14.9 |
| CC12CCC(O)CC1CCC1C2CCC2(C)C(C3=CC(=O)OC3)CCC12 (stereo not given) | 5.29 µM | > 42.9 |
| O=C1C(=O)c2c(nc3ncccn23)-c2ccccc21 | 0.205 µM | 0.555 |
| Nc1c(O)c(S(=O)(=O)O)c(O)c2c1C(=O)c1ccccc1C2=O | 2.1 µM | 5.98 |
| c1ccc2c(c1)ccc1c3ccccc3ccc21 | 8.59 µM | > 50 |
| COc1ccc(Cn2cc(Cn3c(=O)c(-c4nc5ccccc5[nH]4)cc4ccccc43)nn2)c(OC)c1OC | 0.112 µM and 0.254 µM | – |
| Cc1ccccc1NC(=O)c1sc2nc3c(cc2c1N)C(=O)CCC3 | 0.529 µM | 6.21 |
| Clc1ccc(-c2cn(-c3ccccc3)c(-c3ccccc3)n2)c(Cl)c1 | > 50 µM | > 50 |
| CC1(C)CC[C@]2(C(=O)O)CC[C@]3(C)[C@H](CC[C@@H]4[C@@]5(C)CCC(=O)C(C)(C)[C@@H]5CC[C@]43C)[C@H]2[C@H]1OC(=O)C(F)(F)F | 5.83 µM | 21.1 |
